Assay results reported in BindingDB's records for doi:10.1016/1074-5521(95)90124-8 (University of California San Diego, 1995).
Counter-ions that a name gives are not always drawn.

What was measured:
[1] = molecular target: cAMP-dependent protein kinase (Oryctolagus cuniculus, UniProt Q95J97); assay: Inhibition Assay; settings: pH 7.5
Source text: Cyclic AMP-dependent protein kinase (PKA) enzyme inhibition assay using purified recombinant C subunit of PKA (catalytic (C) subunit (cPKA)) with holoenzyme purified from rabbit muscle.

[2] = molecular target: Protein kinase C beta type (Rattus norvegicus, UniProt P68403); assay: Inhibition Assay; settings: 30 °C
Protein kinase C beta type, sequence (P68403 whole entry): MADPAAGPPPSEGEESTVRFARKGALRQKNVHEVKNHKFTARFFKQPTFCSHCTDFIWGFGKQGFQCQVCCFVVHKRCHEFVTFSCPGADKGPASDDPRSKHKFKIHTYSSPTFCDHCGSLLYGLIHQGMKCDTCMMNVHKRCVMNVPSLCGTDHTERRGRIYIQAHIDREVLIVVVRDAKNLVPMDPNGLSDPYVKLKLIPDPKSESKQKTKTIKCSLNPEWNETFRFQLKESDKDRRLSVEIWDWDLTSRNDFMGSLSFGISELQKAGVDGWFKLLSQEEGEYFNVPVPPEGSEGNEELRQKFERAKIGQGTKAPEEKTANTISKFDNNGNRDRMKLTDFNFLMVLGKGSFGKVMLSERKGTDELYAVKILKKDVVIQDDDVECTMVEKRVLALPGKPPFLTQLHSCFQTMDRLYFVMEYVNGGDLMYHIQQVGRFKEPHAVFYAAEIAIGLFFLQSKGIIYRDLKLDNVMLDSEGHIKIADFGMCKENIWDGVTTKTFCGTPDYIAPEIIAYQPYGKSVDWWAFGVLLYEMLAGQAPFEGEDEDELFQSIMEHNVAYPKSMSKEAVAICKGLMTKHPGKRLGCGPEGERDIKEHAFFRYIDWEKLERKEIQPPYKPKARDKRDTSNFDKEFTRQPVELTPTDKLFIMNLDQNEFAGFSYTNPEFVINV

SMILES	IC50 ([1]; 30 °C)	Ki ([1]; 30 °C)	IC50 ([2]; pH 7.5)	Ki ([2]; pH 7.5)	IC50 [2]	Ki [2]	Ki [1]
O=C(N[C@@H]1CNCCC[C@H]1OC(=O)c1ccc(C(=O)c2c(O)cccc2C(=O)O)cc1)c1ccc(O)cc1 [4'',6''-Dideoxybalanol, 6]	0.0055 µM	0.0034 µM	0.111 µM	0.08 µM			
O=C(N[C@@H]1CNCCC[C@H]1OC(=O)c1cc(O)c(C(=O)c2c(O)cccc2C(=O)O)c(O)c1)c1ccccc1 [5'-Deoxybalanol, 7]	0.0057 µM	0.0035 µM	0.095 µM	0.069 µM			
O=C(N[C@@H]1CNCCC[C@H]1OC(=O)c1cc(O)c(C(=O)c2ccccc2O)c(O)c1)c1ccc(O)cc1 [14''-Decarboxybalanol hydrochloride, 5]	0.018 µM	0.011 µM			6.9 µM	5 µM	
O=C(N[C@@H]1CNCCC[C@H]1OC(=O)c1cc(O)c(C(=O)c2ccccc2C(=O)O)c(O)c1)c1ccc(O)cc1	0.0063 µM	0.0039 µM	0.834 µM	0.64 µM			
O=C(N[C@@H]1CNCCC[C@H]1OC(=O)c1cc(O)c(C(=O)c2c(O)cccc2C(=O)O)c(O)c1)c1ccc(O)cc1 [Acyclic Balanol Analog (-)-1]						0.0053 µM	
COC(=O)c1cc(O)c(C(=O)c2c(O)cccc2C(=O)O)c(O)c1 [Benzophenone fragment, 2]		> 10 µM		> 1000 µM			
O=S(ONCCNC/C=C/c1ccc(Br)cc1)c1cccc2cnccc12 (stereo unspecified) [H-89, 10]						31.7 µM	0.048 µM
CN[C@@H]1C[C@H]2O[C@@](C)([C@@H]1OC)n1c3ccccc3c3c4c(c5c6ccccc6n2c5c31)C(=O)NC4							0.035 µM
O=C(N[C@@H]1CNCCC[C@H]1O)c1ccc(O)cc1 [Hexahydroazepine, 3]						> 1000 µM	> 10 µM
CCCCCCOC(=O)[C@@]1(O)CC2O[C@]1(C)n1c3ccccc3c3c4c(c5c6ccccc6n2c5c31)C(=O)NC4 [KT5720, 9]						> 2 µM	0.056 µM
